Results from article doi:10.1101/2022.12.26.521971v1 (biorxiv, 2022).

Target: rNTSR1 (wild-type rat Neurotensin Receptor 1) (Rattus norvegicus, UniProt P20789)
Assay: cell-based
Set-up: species or system HEK293T

Chain of rNTSR1 (wild-type rat Neurotensin Receptor 1) (P20789 whole entry): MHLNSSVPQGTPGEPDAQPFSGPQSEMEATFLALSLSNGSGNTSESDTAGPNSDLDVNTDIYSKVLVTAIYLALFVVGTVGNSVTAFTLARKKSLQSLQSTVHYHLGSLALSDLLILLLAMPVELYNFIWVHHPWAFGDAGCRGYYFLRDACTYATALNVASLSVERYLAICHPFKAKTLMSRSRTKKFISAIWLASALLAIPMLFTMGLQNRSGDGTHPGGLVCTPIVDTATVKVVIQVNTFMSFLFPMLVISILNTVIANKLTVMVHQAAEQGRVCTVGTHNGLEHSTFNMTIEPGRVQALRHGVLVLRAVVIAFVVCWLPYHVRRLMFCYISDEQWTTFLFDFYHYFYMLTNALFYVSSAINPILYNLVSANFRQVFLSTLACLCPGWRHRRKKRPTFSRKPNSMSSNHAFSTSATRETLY

Work on COc1cc2nc(C3CC3)nc(N3CCN(c4ccccc4OC)CC3)c2cc1OC [ML314] yielded a Kb of 776 nM.
